Measurements published in patent US8642642B2, “Heterocyclic arylsulphones suitable for treating disorders that respond to modulation of the serotonin 5HT6 receptor” (Abbott Laboratories, priority 2006, dated 2014).
Structures can show the parent of a compound that is named as a salt.

Assays:
[1] = target: T1, human dopamine D3 receptors (Homo sapiens, UniProt P35462); test: Dopamine D3 receptor binding ([125I]-iodosulpride); details: for Ki: membranes from HEK-293 cells, 0.1 nM [125I]-iodosulpride; for Ki(D2)/Ki(D3): ratio of receptor binding constants, D2L versus D3
T1 construct: expressed in transfected cells
Experimental: (§1) The substance to be tested was either dissolved in methanol/Chremophor® (BASF-AG) or in dimethyl sulfoxide and then diluted with water to the desired concentration.
Each assay mixture was run in triplicate.
The incubation buffer contained 50 mM tris, 120 mM NaCl, 5 mM KCl, 2 mM CaCl2, 2 mM MgCl2 and 0.1% bovine serum albumin, 10 μM quinolone and 0.1% ascorbic acid (prepared fresh daily). The buffer was adjusted to pH 7.4 with HCl.
After having been incubated at 25° C. for 60 minutes, the assay mixtures were filtered through a Whatman GF/B glass fiber filter under vacuum using a cell collecting device. The filters were transferred to scintillation viols using a filter transfer system. After 4 ml of Ultima Gold® (Packard) have been added, the samples were shaken for one hour and the radioactivity was then counted in a Beta-Counter (Packard, Tricarb 2000 or 2200CA). The cpm values were converted into dpm using a standard quench series and the program belonging to the instrument.
The inhibition curves were analyzed by means of iterative nonlinear regression analysis using the Statistical Analysis System (SAS) which is similar to the “LIGAND” program described by Munson and Rodbard.

[2] = target: T2, human 5-HT6 receptor (Homo sapiens, UniProt P50406); test: Human 5-HT6 receptor binding assay (3H-LSD displacement); details: membranes from HEK-293 cells, 2 nM 3H-LSD
T2 construct: expressed in transfected cells
Experimental: as §1
The compounds were dissolved in a concentration of 10^−2 M or 10^−3 M in DMSO. Further dilutions were performed in incubation buffer.
The procedure for the binding assay was based on the method of Monsma et al. (1993) Mol Pharmacol 43: 320-327. The binding reaction was carried out in a total volume of 0.250 ml for 60 min at 37° C. Membranes from HEK-293 cells stably expressing the human 5-HT6 receptor were incubated with 2 nM ^3H-LSD in the presence or absence of various concentrations of test compound for 60 min at 37° C. Non-specific binding was defined with 100 μM Serotonin (5-HT). Assays were performed in duplicate. Bound and free radioligand was separated by filtration and bound radioactivity determined by liquid scintillation counting.
The specific ligand binding to the receptors was defined as the difference between the total binding and the nonspecific binding determined in the presence of an excess of unlabelled 5-HT. The results are expressed as a percent of control specific binding obtained in the presence of compound. The IC50 values (concentration causing a half-maximal inhibition of control specific binding) and Hill coefficients (nH) were determined by non-linear regression analysis of the competition curves using Hill equation curve fitting.
The inhibition constants (Ki) were calculated from the Cheng Prusoff equation (Ki=IC50/(1+(L/KD)), where L=concentration of radioligand in the assay, and KD=affinity of the radioligand for the receptor).

T1 sequence (P35462 whole entry): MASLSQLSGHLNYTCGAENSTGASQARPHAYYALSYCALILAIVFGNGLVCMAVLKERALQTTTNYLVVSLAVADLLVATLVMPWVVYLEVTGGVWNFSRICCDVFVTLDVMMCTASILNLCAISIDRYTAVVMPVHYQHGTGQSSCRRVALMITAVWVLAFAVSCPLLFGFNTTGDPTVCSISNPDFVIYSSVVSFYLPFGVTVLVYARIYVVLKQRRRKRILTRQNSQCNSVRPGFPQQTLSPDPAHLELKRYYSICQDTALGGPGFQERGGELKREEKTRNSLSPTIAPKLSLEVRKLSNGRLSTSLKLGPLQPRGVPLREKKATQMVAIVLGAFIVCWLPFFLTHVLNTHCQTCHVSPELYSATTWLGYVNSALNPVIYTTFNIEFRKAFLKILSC
T2 sequence (P50406 whole entry): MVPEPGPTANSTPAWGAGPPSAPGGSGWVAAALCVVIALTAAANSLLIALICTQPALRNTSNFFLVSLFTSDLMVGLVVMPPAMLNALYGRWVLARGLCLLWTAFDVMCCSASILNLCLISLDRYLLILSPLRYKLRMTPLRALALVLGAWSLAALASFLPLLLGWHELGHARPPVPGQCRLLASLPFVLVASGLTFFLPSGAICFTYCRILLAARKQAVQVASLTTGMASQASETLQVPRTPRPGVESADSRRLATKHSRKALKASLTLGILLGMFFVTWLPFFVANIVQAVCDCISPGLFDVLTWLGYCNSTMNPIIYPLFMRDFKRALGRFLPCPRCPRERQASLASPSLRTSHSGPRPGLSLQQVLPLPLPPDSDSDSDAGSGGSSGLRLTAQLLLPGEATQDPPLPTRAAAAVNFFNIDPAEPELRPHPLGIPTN

| Ki [1] [nM] | Ki(D2)/Ki(D3) [1] | Ki [2] [nM] | Structure (SMILES) |
| --- | --- | --- | --- |
| 10 to 50 | + (between 10 and 50) | 1 to 10 | CCCN1CC[C@@H](c2ccc(NS(=O)(=O)c3cccc(Cl)c3)cc2)C1 [Example 98, 3-Chloro-N-[4-((S)-1-propyl-pyrrolidin-3-yl)-phenyl]-benzenesulfonamide] |
| 1 to 10 | +++ (between 100 and 150) | 10 to 50 | CCCN1CC[C@@H](c2ccc(NS(=O)(=O)c3cc(F)c(Br)cc3F)cc2)C1 [Example 3, 4-Bromo-3,6-difluoro-N-[4-((S)-1-propyl-pyrrolidin-3-yl)-phenyl]-benzenesulfonamide] |
| 10 to 50 | + (between 10 and 50) | 1 to 10 | CCCN1C[C@@H](CF)[C@H](c2ccc(NS(=O)(=O)c3cccc(C(F)(F)F)c3)cc2)C1 (relative stereo) [Example 95, N-[4-(trans-4-Fluoromethyl-1-propyl-pyrrolidin-3-yl)-phenyl]-3-trifluoromethyl-benzenesulfonamide] |
| 10 to 50 | +++ (between 100 and 150) | 10 to 50 | Cl.O=S(=O)(Nc1ccc([C@@H]2CCNC2)cc1)c1ccc(-c2ccccn2)s1 [Example 69, 5-Pyridin-2-yl-thiophene-2-sulfonic acid ((S)-4-pyrrolidin-3-yl-phenyl)-amide hydrochloride] |
| 10 to 50 | ++ (between 50 and 100) | 1 to 10 | CCCN1CC[C@@H](c2ccc(NS(=O)(=O)c3cccc(F)c3)cc2)C1.O=C(O)C(F)(F)F [Example 97, 3-Fluoro-N-[4-((S)-1-propyl-pyrrolidin-3-yl)-phenyl]-benzenesulfonamide trifluoroacetate] |
|  |  | 1 to 10 | O=S(=O)(Nc1cccc(C2CCNC2)c1)c1cccc(OC(F)(F)F)c1 (centres unmarked) [Example 6, N-(3-Pyrrolidin-3-yl-phenyl)-3-trifluoromethoxy-benzenesulfonamide] |
|  |  | 10 to 50 | CCCN1CC[C@@H](c2ccc(NS(=O)(=O)c3cc(C(F)(F)F)ccc3OC)cc2)C1 [Example 91, 2-Methoxy-N-[4-((S)-1-propyl-pyrrolidin-3-yl)-phenyl]-5-trifluoromethyl-benzenesulfonamide] |
|  |  | 10 to 50 | CCCN1CC(c2ccc(NS(=O)(=O)c3cccc(Br)c3)cc2)C1 [Example 52, 3-Bromo-N-[4-(1-propyl-azetidin-3-yl)-phenyl]-benzenesulfonamide] |
|  |  | 1 to 10 | Cc1nc(-c2cccc(S(=O)(=O)Nc3cccc(C4CNC4)c3)c2)cs1 [Example 10, N-(3-Azetidin-3-yl-phenyl)-3-(2-methyl-thiazol-4-yl)-benzenesulfonamide] |
|  |  | 10 to 50 | O=S(=O)(Nc1cccc(C2CNC2)c1)c1cc(C(F)(F)F)cc(C(F)(F)F)c1 [Example 13, N-(3-Azetidin-3-yl-phenyl)-3,5-bis-trifluoromethyl-benzenesulfonamide] |
|  |  | 10 to 50 | CCCN1CC[C@@H](c2ccc(NS(=O)(=O)c3cccc([C@H](C)C(F)F)c3)cc2)C1 [Example 34, 3-((S)-2,2-Difluoro-1-methyl-ethyl)-N-[4-((S)-1-propyl-pyrrolidin-3-yl)-phenyl]-benzenesulfonamide] |
|  |  | 50 to 150 | CCCN1CC(c2ccc(NS(=O)(=O)c3ccc(F)c(F)c3)cc2)C1 [Example 54, 3,4-Difluoro-N-[4-(1-propyl-azetidin-3-yl)-phenyl]-benzenesulfonamide] |
|  |  | 10 to 50 | CCCN1CCC(c2cc(NS(=O)(=O)c3cccc(OC(F)(F)F)c3)ccc2OC)C1 (centres unmarked) [Example 8, N-[4-Methoxy-3-(1-propyl-pyrrolidin-3-yl)-phenyl]-3-trifluoromethoxy-benzenesulfonamide] |
|  |  | 1 to 10 | O=S(=O)(Nc1cccc([C@@H]2CCNC2)c1)c1cccc(C(F)(F)F)c1 [Example 67, N-[3-((S)-pyrrolidin-3-yl)-phenyl]-3-trifluoromethyl-benzene sulfonamide] |
|  |  | 10 to 50 | CCCN1CC[C@@H](c2ccc(NS(=O)(=O)c3cc(C(F)(F)F)ccc3F)cc2)C1 [Example 104, 2-Fluoro-N-[4-((S)-1-propyl-pyrrolidin-3-yl)-phenyl]-5-trifluoromethyl-benzenesulfonamide] |
|  |  | 50 to 150 | N#Cc1cccc(S(=O)(=O)Nc2cccc(C3CNC3)c2)c1 [Example 24, N-(3-Azetidin-3-yl-phenyl)-3-cyano-benzenesulfonamide] |
|  |  | 50 to 150 | CCCN1CC(c2ccc(NS(=O)(=O)c3cc(Cl)ccc3Cl)cc2)C1 [Example 40, 2,5-Dichloro-N-[4-(1-propyl-azetidin-3-yl)-phenyl]-benzenesulfonamide] |

| Ki [1] [nM] | Ki(D2)/Ki(D3) [1] | Ki [2] [nM] | Structure (SMILES) |
| --- | --- | --- | --- |
|  |  | 10 to 50 | CSc1nccc(-c2ccc(S(=O)(=O)Nc3cccc(C4CNC4)c3)s2)n1 [Example 23, 5-(2-Methylsulfanyl-pyrimidin-4-yl)-thiophene-2-sulfonic acid (3-azetidin-3-yl-phenyl)-amide] |
|  |  | 10 to 50 | O=S(=O)(Nc1cccc(C2CCCNC2)c1)c1cccc(OC(F)(F)F)c1 (centres unmarked) [Example 63, N-(3-Piperidin-3-yl-phenyl)-3-trifluoromethoxy-benzenesulfonamide hydrochloride] |
|  |  | 50 to 150 | CCCN1CC(c2ccc(NS(=O)(=O)c3ccc(F)c(Cl)c3)cc2)C1 [Example 44, 3-Chloro-4-fluoro-N-[4-(1-propyl-azetidin-3-yl)-phenyl]-benzenesulfonamide] |
|  |  | 10 to 50 | CCCN1CC(c2ccc(NS(=O)(=O)c3ccc(Cl)s3)cc2)C1 [Example 47, 5-Chloro-thiophene-2-sulfonic acid [4-(1-propyl-azetidin-3-yl)-phenyl]-amide] |
|  |  | < 1 | COc1ccc(Br)cc1S(=O)(=O)Nc1cccc(C2CNC2)c1 [Example 20, N-(3-Azetidin-3-yl-phenyl)-5-bromo-2-methoxy-benzenesulfonamide] |
|  |  | 1 to 10 | O=S(=O)(Nc1cccc(C2CNC2)c1)c1cccc(OC(F)(F)F)c1 [Example 32, N-(3-Azetidin-3-yl-phenyl)-3-trifluoromethoxy-benzenesulfonamide] |
|  |  | < 1 | O=S(=O)(Nc1cccc(C2CNC2)c1)c1cccc(Cl)c1 [Example 17, N-(3-Azetidin-3-yl-phenyl)-3-chloro-benzenesulfonamide] |
|  |  | 50 to 150 | CCCN1CC(c2ccc(NS(=O)(=O)c3cc(C(F)(F)F)cc(C(F)(F)F)c3)cc2)C1 [Example 42, N-[4-(1-Propyl-azetidin-3-yl)-phenyl]-3,5-bis-trifluoromethyl-benzenesulfonamide] |
|  |  | 1 to 10 | O=S(=O)(Nc1cccc(C2CNC2)c1)c1cccc(C(F)(F)F)c1 [Example 31, N-(3-Azetidin-3-yl-phenyl)-3-trifluoromethyl-benzenesulfonamide] |
|  |  | 10 to 50 | CCCN1CC(c2ccc(NS(=O)(=O)c3cccc(Cl)c3)cc2)C1 [Example 48, 3-Chloro-N-[4-(1-propyl-azetidin-3-yl)-phenyl]-benzenesulfonamide] |
|  |  | 1 to 10 | CN1CC[C@@H](c2cccc(NS(=O)(=O)c3cccc(C(F)(F)F)c3)c2)C1 [Example 77, N-[3-((S)-1-Methyl-pyrrolidin-3-yl)-phenyl]-3-trifluoromethyl-benzenesulfonamide hydrochloride] |
|  |  | 1 to 10 | Cc1cccc(S(=O)(=O)Nc2cccc(C3CNC3)c2)c1 [Example 19, N-(3-Azetidin-3-yl-phenyl)-3-methyl-benzenesulfonamide] |
|  |  | 50 to 150 | CCCN1CC[C@@H](c2ccc(NS(=O)(=O)c3cccc(C#N)c3)cc2)C1 [Example 64, 3-Cyano-N-[4-((S)-1-propyl-pyrrolidin-3-yl)-phenyl]-benzenesulfonamide hydrochloride] |
|  |  | 1 to 10 | COc1cccc(S(=O)(=O)Nc2cccc(C3CNC3)c2)c1 [Example 25, N-(3-Azetidin-3-yl-phenyl)-3-methoxy-benzenesulfonamide] |
|  |  | 10 to 50 | CCCN1CC(c2ccc(NS(=O)(=O)c3cc(Cl)cc(Cl)c3)cc2)C1 [Example 49, 3,5-Dichloro-N-[4-(1-propyl-azetidin-3-yl)-phenyl]-benzenesulfonamide] |
|  |  | 1 to 10 | O=S(=O)(Nc1cccc(C2CNC2)c1)c1cc(Cl)sc1Cl [Example 16, 2,5-Dichloro-thiophene-3-sulfonic acid (3-azetidin-3-yl-phenyl)-amide] |
|  |  | 1 to 10 | O=S(=O)(Nc1cccc(C2CNC2)c1)c1cc(Cl)cc(Cl)c1 [Example 18, N-(3-Azetidin-3-yl-phenyl)-3,5-dichloro-benzenesulfonamide] |
